{
  "source": "patent US6258839A",
  "about": "“Isolation of naturally occuring isoflavanone and some clinical uses thereof” (priority 1997, dated 2001)",
  "key": {"HIV-11118": {"system": "HIV-11118", "assay": "in vitro anti-HIV activity, HIV-11118", "type": "cell-based, HIV-1"}, "HIV-1 AZT^res": {"system": "HIV-1 AZT^res", "assay": "in vitro anti-HIV activity, AZT resistant HIV-1", "type": "cell-based", "settings": "Human immunodeficiency virus 1"}, "SIV MAC": {"system": "SIV MAC", "assay": "in vitro antiviral activity, SIV", "type": "cell-based"}, "[1]": {"system": "HIV in fresh human peripheral blood mononuclear cells (PBMC's)", "assay": "in vitro anti-HIV activity in fresh human PBMC's", "type": "cell-based, HIV-1", "settings": "Human immunodeficiency virus 1, PBMC"}, "CALO/V901, P225S": {"system": "CALO/V901, P225S", "assay": "microbe, parasite or virus in culture", "type": "cell-based, HIV-1", "settings": "Human immunodeficiency virus 1"}, "DPS/Y181C": {"system": "DPS/Y181C", "assay": "activity against HIV mutants: DPS/Y181C", "type": "cell-based, HIV-1"}, "HEPT/P236L": {"system": "HEPT/P236L", "assay": "activity against HIV mutants: HEPT/P236L", "type": "cell-based, HIV-1", "settings": "Human immunodeficiency virus 1"}, "TiBO/A98G, V1081": {"system": "TiBO/A98G, V1081", "assay": "activity against HIV mutants: TiBO/A98G, V1081", "type": "cell-based, HIV-1", "settings": "Human immunodeficiency virus 1"}, "HIV-2": {"system": "HIV-2", "assay": "activity against HIV-2", "type": "cell-based"}, "integrase": {"target": "integrase (Human immunodeficiency virus type 1 group M subtype B, UniProt P04585)", "assay": "integrase enzymatic activity", "type": "biochemical, HIV"}, "[2]": {"system": "HIV-1 attachment to cells (CEM-SS, PBMC's)", "assay": "virus attachment assay, p24 based", "type": "cell-based"}, "HIV [3]": {"system": "HIV", "assay": "combination studies with AZT", "type": "cell-based"}, "solubility studies": {"assay": "solubility studies", "type": "physicochemical", "method": "It is very soluble in propylene glycol (PG), polyethylene glycol (PEG) 400 and soybean oil. These solvents may be useful in formulating cosolvents suitable for pharmaceutical applications. The ethanolic solutions has UV absorptions in the 290-300 nm range, useful for analytical work. Aqueous solutions for analytical work were prepared in HPCD and diluted with water to the required concentrations. The stock solutions were stable when incubated for 48 hours at 37° C. and when stored at room temperature."}, "BSA": {"target": "BSA (Bos taurus, UniProt P02769)", "sequence (P02769 25-607)": "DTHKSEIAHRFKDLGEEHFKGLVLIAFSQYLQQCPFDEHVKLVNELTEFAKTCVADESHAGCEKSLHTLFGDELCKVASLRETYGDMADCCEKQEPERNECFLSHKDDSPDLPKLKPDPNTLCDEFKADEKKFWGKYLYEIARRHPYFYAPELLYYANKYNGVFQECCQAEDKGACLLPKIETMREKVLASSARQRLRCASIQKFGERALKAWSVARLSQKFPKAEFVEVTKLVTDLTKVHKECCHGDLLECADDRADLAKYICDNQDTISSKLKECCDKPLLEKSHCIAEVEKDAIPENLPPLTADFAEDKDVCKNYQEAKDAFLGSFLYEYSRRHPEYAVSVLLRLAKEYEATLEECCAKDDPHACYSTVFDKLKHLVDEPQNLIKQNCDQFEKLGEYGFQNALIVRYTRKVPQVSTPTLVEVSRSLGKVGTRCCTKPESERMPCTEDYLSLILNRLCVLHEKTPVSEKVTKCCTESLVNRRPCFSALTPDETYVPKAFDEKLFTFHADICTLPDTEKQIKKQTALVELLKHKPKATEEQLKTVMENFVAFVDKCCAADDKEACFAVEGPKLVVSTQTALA", "assay": "interaction with BSA by fluorescence spectroscopy", "type": "binding, bovine", "settings": "PMZ-1 in the μM range"}, "hollow fibre studies": {"assay": "hollow fibre studies", "type": "in vivo", "settings": "intraperitoneally; preliminary"}, "breast cancer": {"system": "breast cancer", "assay": "NCI 60 cell line panel, breast cancer", "type": "cell-based"}, "[4]": {"system": "mutant viruses containing reverse transcriptase domain at codons 181, 139 and 100", "assay": "activity against three other mutant viruses", "type": "cell-based, HIV"}, "[5]": {"assay": "U1/TNF differential latent infection, XTT and p24", "settings": "human, u1 cells"}, "U1 latent infection": {"system": "U1 latent infection", "assay": "U1/TNF differential latent infection, XTT and p24"}, "CEM-SS": {"system": "CEM-SS", "assay": "growth inhibition of uninfected host cells in anti-HIV screen", "settings": "Homo sapiens"}, "HIV [6]": {"system": "HIV", "assay": "HIV activity of co-isolated compounds", "type": "cell-based"}, "[7]": {"system": "HIV-1 infected cells (p24 production)", "assay": "extended time course assay, p24 and XTT", "settings": "addition to culture after infection"}},
  "data": [
    {"smiles": "COc1c(O)cc(C2COc3cc(O)cc(O)c3C2=O)cc1CC=C(C)C", "note": "(racemic) [PMZ-1]", "values": [
      {"measurement": "EC50", "setting": "HIV-11118; Human immunodeficiency virus 1, HIV-1IIIB, NCI AIDS anti-viral screen", "value": 0.2, "unit": "µM"},
      {"measurement": "EC50", "setting": "HIV-11118; Human immunodeficiency virus 1, HIV-11118", "value": 0.058, "unit": "µM"},
      {"measurement": "EC50", "setting": "HIV-1 AZT^res", "value": 0.16, "unit": "µM"},
      {"measurement": "activity against SIV", "setting": "SIV MAC", "value": "weak activity"},
      {"measurement": "EC50", "setting": "[1]; PMBC's", "value": 0.6, "unit": "µM"},
      {"measurement": "EC50", "setting": "[1]; fresh human PBMC's", "value": "< 1", "unit": "µM"},
      {"measurement": "EC50", "setting": "CALO/V901, P225S", "value": 0.1, "unit": "µM"},
      {"measurement": "EC50", "setting": "DPS/Y181C; Human immunodeficiency virus 1, DPS/Y181C", "value": 1.39, "unit": "µM"},
      {"measurement": "EC50", "setting": "DPS/Y181C; Human immunodeficiency virus 1, mutant Y181", "value": "~1", "unit": "µM"},
      {"measurement": "EC50", "setting": "HEPT/P236L", "value": "> 5", "unit": "µM"},
      {"measurement": "EC50", "setting": "TiBO/A98G, V1081", "value": "> 5", "unit": "µM"},
      {"measurement": "activity against HIV-2", "setting": "HIV-2", "value": "weak activity"},
      {"measurement": "IC50", "setting": "integrase", "value": 40, "unit": "µM"},
      {"measurement": "effect on attachment of virons to cells", "setting": "[2]", "value": "no effect"},
      {"measurement": "HIV-1 Attachment to CEM-SS cells", "setting": "[2]; at 100 μM, CEM-SS cells", "value": "No inhibition"},
      {"measurement": "anti-viral combination effect with AZT", "setting": "HIV [3]", "value": "anti-viral synergistic effects"},
      {"measurement": "solubility in 40% HPCD", "setting": "solubility studies; 40% hydroxypropyl beta-cyclodextrin", "value": "soluble"},
      {"measurement": "solubility in ethanol", "setting": "solubility studies; ethanol", "value": "> 1", "unit": "mg/mL"},
      {"measurement": "solubility in PG, PEG 400 and soybean oil", "setting": "solubility studies; propylene glycol, polyethylene glycol 400, soybean oil", "value": "very soluble"},
      {"measurement": "solubility in water", "setting": "solubility studies; water", "value": "poorly soluble"},
      {"measurement": "quenching of fluorescence of BSA", "setting": "BSA", "value": "concentration dependent quenching"},
      {"measurement": "activity in hollow fibre studies", "setting": "hollow fibre studies", "value": "active"},
      {"measurement": "activity against breast cancer", "setting": "breast cancer", "value": "good activity"},
      {"measurement": "activity against three other mutant viruses", "setting": "[4]", "value": "some activity"},
      {"measurement": "MNTC", "setting": "[5]", "value": 1000, "unit": "nM"},
      {"measurement": "U1/TNF differential latent infection XTT: toxic concentration", "setting": "U1 latent infection; XTT", "value": "≤ 3.16", "unit": "µM"},
      {"measurement": "U1/TNF differential latent infection p24 production", "setting": "U1 latent infection; p24", "value": "no inhibition of p24 production"},
      {"measurement": "IC50", "setting": "CEM-SS", "value": 38, "unit": "µM"},
      {"measurement": "IC50", "setting": "CEM-SS; cell growth, HIV-1 AZT^res test", "value": 42, "unit": "µM"},
      {"measurement": "IC50", "setting": "CEM-SS; cell growth, HIV-1 AZT^sen test", "value": 35, "unit": "µM"},
      {"measurement": "IC50", "setting": "CEM-SS; cell growth, HIV-1 DPS test", "value": 42, "unit": "µM"},
      {"measurement": "IC50", "setting": "CEM-SS; cell growth, HIV-1 N119 test", "value": 60, "unit": "µM"},
      {"measurement": "IC50", "setting": "CEM-SS; cell growth, HIV-1RF test", "value": 20, "unit": "µM"},
      {"measurement": "IC50", "setting": "CEM-SS; cell growth, HIV-1 ROD test", "value": 28, "unit": "µM"},
      {"measurement": "IC50", "setting": "CEM-SS; cell growth, HIV-11118 test", "value": 46, "unit": "µM"},
      {"measurement": "IC50", "setting": "CEM-SS; cell growth, SIV MAC test", "value": 35, "unit": "µM"}
    ]},
    {"smiles": "CC(C)=CCc1c(O)cc(O)c2c1OC(c1ccc(O)c(O)c1)CC2=O", "note": "(stereo not drawn) [4382-39-1]", "values": [
      {"measurement": "HIV activity", "setting": "HIV [6]", "value": "devoid of HIV activity"}
    ]},
    {"smiles": "CC(C)=CCc1cc(C2COc3cc(O)cc(O)c3C2=O)cc(O)c1O", "note": "(stereo not drawn) [4382-39-2]", "values": [
      {"measurement": "HIV activity", "setting": "HIV [6]", "value": "devoid of HIV activity"}
    ]},
    {"smiles": "Cc1ccnc2c1NC(=O)c1cccnc1N2C1CC1", "note": "[nevirapine, reference compound]", "values": [
      {"measurement": "time after infection within which addition is effective", "setting": "[7]", "value": "≤ 8", "unit": "h"}
    ]}
  ]
}
